Experimental data: PMC4855137, “Raffinose, a plant galactoside, inhibits Pseudomonas aeruginosa biofilm formation via binding to LecA and decreasing cellular cyclic diguanylate levels” (Scientific Reports, 2016)

Legend:
[1] = biological target: T1, LecA (PA-IL) (Pseudomonas aeruginosa, UniProt Q05097); test: isothermal titration calorimetry; CPMG NMR competition with raffinose; format: binding
[2] = biological target: T1, LecA (PA-IL); test: isothermal titration calorimetry; 1D relaxation-edited (CPMG) NMR with galactose competition; format: binding

T1 sequence (Q05097 2-122): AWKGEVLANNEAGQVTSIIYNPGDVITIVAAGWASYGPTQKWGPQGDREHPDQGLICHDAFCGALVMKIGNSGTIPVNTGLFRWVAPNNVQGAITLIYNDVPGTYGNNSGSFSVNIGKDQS

Structure (SMILES)	Kd [1] [µM]	Kd [2] [µM]
OC[C@H]1OC(O)[C@H](O)[C@@H](O)[C@H]1O (stereo partly drawn) [D-galactose]	47	
OC[C@H]1O[C@H](OC[C@H]2O[C@H](O[C@]3(CO)O[C@H](CO)[C@@H](O)[C@@H]3O)[C@H](O)[C@@H](O)[C@@H]2O)[C@H](O)[C@@H](O)[C@H]1O [raffinose]		32
